pIC50: −log10 of the molar value. Activity calls are given as the source filed them. The calls are words filed in the database; no cut-off is given here.
Experiments:
[1] = test system: Trypanosoma brucei rhodesiense; experiment: Antiparasitic activity against trypomastigote stage of Trypanosoma brucei rhodesiense STIB 900 assessed as parasite growth inhibition after 72 hrs by Alamar blue assay; type: functional, organism-based; conditions: STIB 900, 72 h
[2] = Selectivity index, ratio of IC50 for rat L6 cells to IC50 for trypomastigote stage of Trypanosoma brucei rhodesiense STIB 900
Trypanosoma cruzi [3] = experiment: Antiparasitic activity against amastigote stage of Trypanosoma cruzi Tulahuen C4 infected in rat L6 cells assessed as parasite growth inhibition after 96 hrs by beta-galactosidase reporter gene assay; type: functional, organism-based; conditions: Tulahuen C4, L6, 96 h
[4] = Selectivity index, ratio of IC50 for rat L6 cells to IC50 for amastigote stage of Trypanosoma cruzi Tulahuen C4 infected in rat L6 cells
Leishmania donovani [5] = experiment: Antiparasitic activity against axenic amastigote stage of Leishmania donovani MHOM-ET-67/L82 assessed as parasite growth inhibition after 72 hrs by Alamar blue assay; type: functional, organism-based; conditions: MHOM-ET-67/L82, 72 h
[6] = Selectivity index, ratio of IC50 for rat L6 cells to IC50 for axenic amastigote stage of Leishmania donovani MHOM-ET-67/L82
L6 = experiment: Cytotoxicity against rat L6 cells assessed as growth inhibition after 72 hrs by Alamar blue assay; type: cell-based; conditions: L6, 72 h
Trypanosoma cruzi [7] = experiment: Potency index, ratio of benznidazole IC50 to compound IC50 for amastigote stage of Trypanosoma cruzi Tulahuen C4 infected in rat L6 cells; type: functional
Leishmania donovani [8] = experiment: Antileishmanial activity against amastigote stage of Leishmania donovani infected in mouse peritoneal macrophages assessed as reduction in parasite burden after 96 hrs by Giemsa staining method; type: functional, organism-based
[9] = Cytotoxicity against mouse peritoneal macrophages; type: cell-based; conditions: Peritoneal macrophage cell
Leishmania donovani [10] = experiment: Potency index, ratio of miltefosine IC50 to compound IC50 for axenic amastigote stage of Leishmania donovani MHOM-ET-67/L82; type: functional
[11] = Prodrug conversion assessed as Trypanosoma brucei recombinant His-tagged type-1 nitroreductase-mediated drug metabolism by measuring NADH oxidation after 5 mins by spectrophotometric analysis; type: ADME; conditions: isolated protein
[12] = Prodrug conversion assessed as Trypanosoma cruzi recombinant type-1 nitroreductase-mediated drug metabolism by measuring NADH oxidation after 5 mins by spectrophotometric analysis; type: ADME; conditions: isolated protein
[13] = test system: Trypanosoma brucei brucei; experiment: Antiparasitic activity against wild type blood stream form of Trypanosoma brucei brucei after 3 days by Alamar blue assay; type: functional, organism-based; conditions: 72 h
[14] = test system: Trypanosoma brucei brucei; experiment: Antiparasitic activity against blood stream form of Trypanosoma brucei brucei overexpressing type-1 nitroreductase after 3 days by Alamar blue assay in absence of tetracycline; type: functional, organism-based; conditions: 72 h
[15] = test system: Trypanosoma brucei brucei; experiment: Antiparasitic activity against blood stream form of Trypanosoma brucei brucei overexpressing type-1 nitroreductase after 3 days by Alamar blue assay in presence of tetracycline; type: functional, organism-based; conditions: 72 h
[16] = test system: Trypanosoma brucei brucei; experiment: Ratio of IC50 for blood stream form of Trypanosoma brucei brucei overexpressing type-1 nitroreductase in absence of tetracycline to IC50 for blood stream form of Trypanosoma brucei brucei overexpressing type-1 nitroreductase in presence of tetracycline; type: functional
Trypanosoma cruzi [17] = experiment: Antichagasic activity against trypomastigote stage of Trypanosoma cruzi Brazil infected in Balb/c mouse assessed as reduction in parasite load at 13 mg/kg/day, ip measured after 5 days by luciferase reporter gene assay; type: functional, organism-based
Mus musculus = experiment: Toxicity in Balb/c mouse at 13 mg/kg/day, ip; type: organism-based; conditions: in vivo
[18] = Efflux ratio of apparent permeability across basolateral to apical side over apical to basolateral side in human Caco2 cells after 2 hrs; conditions: Caco-2
[19] = Half life in human microsomes at 1 uM in absence of NADPH
[20] = Half life in human microsomes at 1 uM in presence of NADPH

## O=C(Cn1cnc([N+](=O)[O-])n1)Nc1ccc(Oc2ccc(F)cc2)cc1
[1]
  pIC50: 5.70
[2]
  selectivity ratio: 35
Trypanosoma cruzi [3]
  pIC50: 7.44
[4]
  selectivity ratio: 1950
Leishmania donovani [5]
  pIC50: 6.74
[6]
  selectivity ratio: 384
L6
  pIC50: 4.15
Trypanosoma cruzi [7]
  Ratio IC50: 56
Leishmania donovani [8]
  pIC50: < 4.55
[9]
  pIC50: 4.08
Leishmania donovani [10]
  Ratio IC50: 0.89
[11]
  Drug metabolism: 2702 nmol/min/mg
[12]
  Drug metabolism: 516 nmol/min/mg
[13]
  pIC50: 5.50
[14]
  pIC50: 5.44
[15]
  pIC50: 6.11
[16]
  Ratio IC50: 4.8
Trypanosoma cruzi [17]
  Activity: Active
Mus musculus
  Activity: Non-toxic

## O=C(Cn1cnc([N+](=O)[O-])n1)Nc1ccc(Oc2ccc(Cl)cc2)cc1
[1]
  pIC50: 5.89
[2]
  selectivity ratio: 22
Trypanosoma cruzi [3]
  pIC50: 8.10
[4]
  selectivity ratio: 3620
Leishmania donovani [5]
  pIC50: 7.47
[6]
  selectivity ratio: 853
L6
  pIC50: 4.54
Trypanosoma cruzi [7]
  Ratio IC50: 254
Leishmania donovani [8]
  pIC50: < 4.57
[9]
  pIC50: 4.10
Leishmania donovani [10]
  Ratio IC50: 4.8
[11]
  Drug metabolism: 2699 nmol/min/mg
[12]
  Drug metabolism: 628 nmol/min/mg
[13]
  pIC50: 5.29
[14]
  pIC50: 5.23
[15]
  pIC50: 5.93
[16]
  Ratio IC50: 5
Trypanosoma cruzi [17]
  Activity: Active
Mus musculus
  Activity: Non-toxic

## O=C(Cn1ccnc1[N+](=O)[O-])NCc1ccccc1 [BENZNIDAZOLE]
[11]
  Drug metabolism: 1540 nmol/min/mg
[12]
  Drug metabolism: 680 nmol/min/mg
Trypanosoma cruzi [17]
  Activity: Active
Mus musculus
  Activity: Non-toxic

## O=C(Cn1cnc([N+](=O)[O-])n1)Nc1ccc(Cc2ccccc2)cc1
[1]
  pIC50: 5.68
[2]
  selectivity ratio: 17
Trypanosoma cruzi [3]
  pIC50: 7.17
[4]
  selectivity ratio: 528
Leishmania donovani [5]
  pIC50: 5.92
[6]
  selectivity ratio: 31
L6
  pIC50: 4.44
Trypanosoma cruzi [7]
  Ratio IC50: 34
Leishmania donovani [8]
  pIC50: < 4.52
[9]
  pIC50: < 4.05
Leishmania donovani [10]
  Ratio IC50: 0.12

## CCCCCCCCCCCCCCCCOP(=O)([O-])OCC[N+](C)(C)C [MILTEFOSINE]
Leishmania donovani [8]
  pIC50: 5.16

## O=C(Cn1cnc([N+](=O)[O-])n1)Nc1nccc(-c2ccccc2)n1
[1]
  pIC50: 3.86
[2]
  selectivity ratio: 1.2
Trypanosoma cruzi [3]
  pIC50: 5.60
[4]
  selectivity ratio: 66
Leishmania donovani [5]
  pIC50: < 3.51
L6
  pIC50: 3.77
Trypanosoma cruzi [7]
  Ratio IC50: 0.8

## O=C(Cn1ccnc1[N+](=O)[O-])Nc1ccc(Oc2ccc(F)cc2)cc1
[1]
  pIC50: 4.89
[2]
  selectivity ratio: 9
Trypanosoma cruzi [3]
  pIC50: 5.48
[4]
  selectivity ratio: 37
Leishmania donovani [5]
  pIC50: 6.54
[6]
  selectivity ratio: 418
L6
  pIC50: 3.91
Trypanosoma cruzi [7]
  Ratio IC50: 0.61
Leishmania donovani [8]
  pIC50: 4.85
[9]
  pIC50: < 4.08
Leishmania donovani [10]
  Ratio IC50: 0.55

## O=C(Cn1cnc([N+](=O)[O-])n1)Nc1ccc(Oc2ccccc2)cc1
[1]
  pIC50: 5.57
[2]
  selectivity ratio: 34
Trypanosoma cruzi [3]
  pIC50: 7.19
[4]
  selectivity ratio: 1420
Leishmania donovani [5]
  pIC50: 6.57
[6]
  selectivity ratio: 339
L6
  pIC50: 4.04
Trypanosoma cruzi [7]
  Ratio IC50: 31
Leishmania donovani [8]
  pIC50: < 4.52
[9]
  pIC50: 4.05
Leishmania donovani [10]
  Ratio IC50: 0.6
[11]
  Drug metabolism: 2931 nmol/min/mg
[12]
  Drug metabolism: 815 nmol/min/mg
[13]
  pIC50: 5.87
[14]
  pIC50: 5.63
[15]
  pIC50: 5.86
[16]
  Ratio IC50: 1.7

## CC1CS(=O)(=O)CCN1/N=C/c1ccc([N+](=O)[O-])o1 (centres undefined) [NIFURTIMOX]
[14]
  pIC50: 5.36
[15]
  pIC50: 6.37
[16]
  Ratio IC50: 10.3

## CC(C)NCC(O)COc1cccc2ccccc12 (centres undefined) [PROPRANOLOL]
[18]
  efflux ratio at 2 h: 3.1

## O=C(Cn1cncn1)Nc1ccc(Oc2ccc(Cl)cc2)cc1
[1]
  pIC50: 4.59
Trypanosoma cruzi [3]
  pIC50: 4.74
[4]
  selectivity ratio: 7.5
Leishmania donovani [5]
  pIC50: 4.54
[6]
  selectivity ratio: 5
L6
  pIC50: 3.86

## O=C(Cn1cnc([N+](=O)[O-])n1)Nc1ccc(-c2ccc(Cl)cc2)cc1
[2]
  selectivity ratio: 140
[4]
  selectivity ratio: 2800
Leishmania donovani [5]
  pIC50: 6.77
[6]
  selectivity ratio: 738
Trypanosoma cruzi [7]
  Ratio IC50: 45
Leishmania donovani [8]
  pIC50: < 4.08
[9]
  pIC50: < 4.08
Leishmania donovani [10]
  Ratio IC50: 0.95
[11]
  Drug metabolism: 2492 nmol/min/mg
[12]
  Drug metabolism: 585 nmol/min/mg
[13]
  pIC50: 6.16
[14]
  pIC50: 6.16
[15]
  pIC50: 6.07
[16]
  Ratio IC50: 0.8
Trypanosoma cruzi [17]
  Activity: Active
Mus musculus
  Activity: Non-toxic

## O=C(Cn1cnc([N+](=O)[O-])n1)Nc1cccc(-c2ccccc2)c1
L6
  pIC50: 4.35
[19]
  half-life at 1 µM: 108 min
[20]
  half-life at 1 µM: 63.6 min

## O=C(Cn1cnc([N+](=O)[O-])n1)NC1CCN(Cc2ccccc2)CC1
[1]
  pIC50: 4.92
[2]
  selectivity ratio: 9.6
Trypanosoma cruzi [3]
  pIC50: 5.10
[4]
  selectivity ratio: 14
Leishmania donovani [5]
  pIC50: 3.88
[6]
  selectivity ratio: < 1
L6
  pIC50: 3.94
Trypanosoma cruzi [7]
  Ratio IC50: 0.28

## CC(C)NCC(O)COc1ccc(CC(N)=O)cc1 (centres undefined) [ATENOLOL]
[18]
  efflux ratio at 2 h: 3.7

## O=C(Cn1cnc([N+](=O)[O-])n1)Nc1cccc(OCc2ccccc2)c1
[1]
  pIC50: 5.31
[2]
  selectivity ratio: 14
Trypanosoma cruzi [3]
  pIC50: 7.55
[4]
  selectivity ratio: 2420
Leishmania donovani [5]
  pIC50: 5.47
[6]
  selectivity ratio: 20
L6
  pIC50: 4.17
Trypanosoma cruzi [7]
  Ratio IC50: 17

## COc1ccc2c(c1)[C@]13CCCC[C@@H]1[C@H](C2)N(C)CC3 [DEXTROMETHORPHAN]
[19]
  half-life at 1 µM: 154 min
[20]
  half-life at 1 µM: 92.5 min

## O=C(Cn1ccnc1[N+](=O)[O-])Nc1ccc(Oc2ccc(Cl)cc2)cc1
[1]
  pIC50: 5.59
[2]
  selectivity ratio: 50
Trypanosoma cruzi [3]
  pIC50: 5.59
[4]
  selectivity ratio: 49
Leishmania donovani [5]
  pIC50: 6.85
[6]
  selectivity ratio: 937
L6
  pIC50: 3.90
Trypanosoma cruzi [7]
  Ratio IC50: 0.78
Leishmania donovani [8]
  pIC50: 4.82
[9]
  pIC50: < 4.09
Leishmania donovani [10]
  Ratio IC50: 1.2
[11]
  Drug metabolism: 3337 nmol/min/mg
[12]
  Drug metabolism: 817 nmol/min/mg
[13]
  pIC50: 5.33
[14]
  pIC50: 5.19
[15]
  pIC50: 5.77
[16]
  Ratio IC50: 3.8

## O=C(Cn1ccnc1[N+](=O)[O-])Nc1ccc(Oc2ccccc2)cc1
[1]
  pIC50: 4.82
Trypanosoma cruzi [3]
  pIC50: 5.38
[4]
  selectivity ratio: 15
Leishmania donovani [5]
  pIC50: 6.10
[6]
  selectivity ratio: 79
L6
  pIC50: 4.21
Trypanosoma cruzi [7]
  Ratio IC50: 0.48
Leishmania donovani [8]
  pIC50: 4.80
[9]
  pIC50: < 4.05
Leishmania donovani [10]
  Ratio IC50: 0.21

Reference: ChEMBL document CHEMBL3611981, “Discovery of potent nitrotriazole-based antitrypanosomal agents: In vitro and in vivo evaluation” (Bioorg Med Chem, 2015)
